These molecules were tested against Recombinant human ATX (Homo sapiens (Human), UniProt Q13822) (assay: ATX inhibition assay (choline release, Amplex Red fluorescence)). Conditions: ATX 10 nM, LPC 18:1 10 μM, 37° C., 20 min pre-incubation; mean of n≧2.
Type: biochemical
Procedure: Reagents—LPC (oleoyl (18:1)) was purchased from Avanti Polar Lipids (Alabaster, Ala.) and solubilized in methanol to 20 mM. Amplex Red was obtained from Invitrogen Life Technologies (Paisley, UK) and dissolved in DMSO to 10 mM. Choline oxidase and horseradish peroxidase (HRP) were obtained from Sigma Aldrich (Dorset, UK) and dissolved in HBSS to 20 U/ml and 200 U/ml respectively. All reagents were stored at −20° C. in single use aliquots. All experimental measurements were performed in assay buffer made up immediately prior to use (HBSS, 0.01% BSA essentially fatty acid free).
PerkinElmer EnVision (Fluorescence Intensity/Absorbance Monochromator) or Tecan Infinite 200 PRO series plate reader was used to detect change in fluorescent intensity.
Assessing ATX inhibition—ATX activity was determined by measurement of released choline in reactions containing ATX (10 nM), choline oxidase (0.1 U/ml), HRP (100 U/ml), amplex red (50 μM) and LPC 18:1 (10 μM). Compounds of the invention were prepared as 10 point serial dilutions from 1 μM in duplicate and pre-incubated with ATX at 37° C. for 20 minutes prior to the addition of remaining reagents. The liberated choline was measured from changes in fluorescence intensity (λex 530 nm, λem 590 nm) of the product resurofin at 37° C. every 2 minutes over a 40-minute period. ATX activity was measured as a slope of the linear portion of the progress curve, typically between 14 to 24 minutes.
Data analysis—Slope data was exported to Graphpad prism (Graphpad software, San Diego, Calif.) where data was fitted to equation 1. Y=Bottom+(Top-Bottom)/(1+10^((Log IC50−X)*HillSlope)) Equation 1: […]
`Cc1noc(C2CCCCN2C(=O)/C=C/c2ccc(Cl)cc2Cn2nnc(C)n2)n1` (racemic) [Example 23, (rac)-(E)-3-(4-Chloro-2-((5-methyl-2H-tetrazol-2-yl)methyl)phenyl)-1-(2-(3-methyl-1,2,4-oxadiazol-5-yl)piperidin-1-yl)prop-2-en-1-one] showed an IC50 of 28 nM. `Cc1nnn(Cc2cc(Cl)ccc2/C=C/C(=O)N2CCCCC2c2nc(C(C)C)no2)n1` (racemic) [Example 30, (rac)-(E)-3-(4-Chloro-2-((5-methyl-2H-tetrazol-2-yl)methyl)phenyl)-1-(2-(3-isopropyl-1,2,4-oxadiazol-5-yl)piperidin-1-yl)prop-2-en-1-one] showed an IC50 of 11 nM. With `Cc1nnn(Cc2cc(Cl)ccc2/C=C/C(=O)N2CCCC(c3nc(C(C)C)no3)C2)n1` (racemic) [Example 34, (rac)-(E)-3-(4-Chloro-2-((5-methyl-2H-tetrazol-2-yl)methyl)phenyl)-1-(3-(3-isopropyl-1,2,4-oxadiazol-5-yl)piperidin-1-yl)prop-2-en-1-one] the IC50 was 29 nM. Work on `Cc1nnn(Cc2cc(Cl)ccc2/C=C/C(=O)N2CCC(C(O)c3ccc(Cl)cc3)CC2)n1` (racemic) [Example 66, rac-(E)-3-(4-Chloro-2-((5-methyl-2H-tetrazol-2-yl)methyl)phenyl)-1-(4-((4-chlorophenyl)(hydroxy)methyl)piperidin-1-yl)prop-2-en-1-one] yielded an IC50 of 6 nM. In the case of `Cc1noc(C2CCCCN2C(=O)/C=C/c2ccc(C(F)(F)F)cc2Cn2nnc(C)n2)n1` (single isomer, unassigned) [Example 5a, (R,E)-1-(2-(3-methyl-1,2,4-oxadiazol-5-yl)piperidin-1-yl)-3-(2-((5-methyl-2H-tetrazol-2-yl)methyl)-4-(trifluoromethyl)phenyl)prop-2-en-1-one or (S,E)-1-(2-(3-methyl-1,2,4-oxadiazol-5-yl)piperidin-1-yl)-3-(2-((5-methyl-2H-tetrazol-2-yl)methyl)-4-(trifluoromethyl)phenyl)prop-2-en-1-one], the IC50 is reported as 3.5 nM. Work on `Cc1noc(C2CCCCN2C(=O)/C=C/c2ccc(C(F)(F)F)cc2Cn2nnc(C)n2)n1` (single isomer, unassigned) [Example 5b, (R,E)-1-(2-(3-methyl-1,2,4-oxadiazol-5-yl)piperidin-1-yl)-3-(2-((5-methyl-2H-tetrazol-2-yl)methyl)-4-(trifluoromethyl)phenyl)prop-2-en-1-one or (S,E)-1-(2-(3-methyl-1,2,4-oxadiazol-5-yl)piperidin-1-yl)-3-(2-((5-methyl-2H-tetrazol-2-yl)methyl)-4-(trifluoromethyl)phenyl)prop-2-en-1-one] yielded an IC50 of 120 nM. In the case of `Cc1noc(C2CCCCN2C(=O)/C=C/c2ccc(Cl)cc2Cn2nnc(C)n2)n1` (single isomer, unassigned) [Example 23a, (R)- or (S)-(E)-3-(4-Chloro-2-((5-methyl-2H-tetrazol-2-yl)methyl)phenyl)-1-(2-(3-methyl-1,2,4-oxadiazol-5-yl)piperidin-1-yl)prop-2-en-1-one], the IC50 is reported as 9.5 nM. In the case of `Cc1nnn(Cc2cc(Cl)ccc2/C=C/C(=O)N2CCCCC2c2nc(C(C)C)no2)n1` (single isomer, unassigned) [Example 30a, (R or S, E)-3-(4-Chloro-2-((5-methyl-2H-tetrazol-2-yl)methyl)phenyl)-1-(2-(3-isopropyl-1,2,4-oxadiazol-5-yl)piperidin-1-yl)prop-2-en-1-one], the IC50 is reported as 4.9 nM. For `Cc1nnn(Cc2cc(Cl)ccc2/C=C/C(=O)N2CCCCC2c2nc(C(C)C)no2)n1` (single isomer, unassigned) [Example 30b, (R or S, E)-3-(4-chloro-2-((5-methyl-2H-tetrazol-2-yl)methyl)phenyl)-1-(2-(3-isopropyl-1,2,4-oxadiazol-5-yl)piperidin-1-yl)prop-2-en-1-one], the IC50 was 100 nM. With `Cc1nnn(Cc2cc(Cl)ccc2/C=C/C(=O)N2CCCC(c3nc(C(C)C)no3)C2)n1` (single isomer, unassigned) [Example 34a, (R or S, E)-3-(4-Chloro-2-((5-methyl-2H-tetrazol-2-yl)methyl)phenyl)-1-(3-(3-isopropyl-1,2,4-oxadiazol-5-yl)piperidin-1-yl)prop-2-en-1-one] the IC50 was 18 nM. Work on `Cc1nnn(Cc2cc(Cl)ccc2/C=C/C(=O)N2CCCC(c3nc(C(C)C)no3)C2)n1` (single isomer, unassigned) [Example 34b, (R or S, E)-3-(4-chloro-2-((5-methyl-2H-tetrazol-2-yl)methyl)phenyl)-1-(3-(3-isopropyl-1,2,4-oxadiazol-5-yl)piperidin-1-yl)prop-2-en-1-one] yielded an IC50 of 149 nM. `Cc1nnn(Cc2cc(C(F)(F)F)ccc2/C=C/C(=O)N2CCCCC2c2noc(C)n2)n1` (single isomer, unassigned) [Example 38a, (R or S, E)-1-(2-(5-Methyl-1,2,4-oxadiazol-3-yl)piperidin-1-yl)-3-(2-((5-methyl-2H-tetrazol-2-yl)methyl)-4-(trifluoromethyl)phenyl)prop-2-en-1-one] gave an IC50 of 20 nM. Work on `Cc1nnn(Cc2cc(C(F)(F)F)ccc2/C=C/C(=O)N2CCCCC2c2noc(C)n2)n1` (single isomer, unassigned) [Example 38b, (R or S, E)-1-(2-(5-methyl-1,2,4-oxadiazol-3-yl)piperidin-1-yl)-3-(2-((5-methyl-2H-tetrazol-2-yl)methyl)-4-(trifluoromethyl)phenyl)prop-2-en-1-one] yielded an IC50 of 410 nM. With `Cc1nnn(Cc2cc(Cl)ccc2/C=C/C(=O)N2CCC(O)C[C@@H]2C)n1` (single isomer, unassigned) [Example 50a, (E)-3-(4-chloro-2-((5-methyl-2H-tetrazol-2-yl)methyl)phenyl)-1-((2S, 4R or 4S)-4-hydroxy-2-methylpiperidin-1-yl)prop-2-en-1-one] the IC50 was 70 nM. `Cc1nnn(Cc2cc(Cl)ccc2/C=C/C(=O)N2CCC(O)C[C@H]2C)n1` (single isomer, unassigned) [Example 50b, (E)-3-(4-chloro-2-((5-methyl-2H-tetrazol-2-yl)methyl)phenyl)-1-((2R, 4R or 4S)-4-hydroxy-2-methylpiperidin-1-yl)prop-2-en-1-one] gave an IC50 of 79 nM. For `Cc1nnn(Cc2cc(Cl)ccc2/C=C/C(=O)N2CCC(C(O)c3ccc(Cl)cc3)CC2)n1` (single isomer, unassigned) [Example 66a, ((R or S), E)-3-(4-Chloro-2-((5-methyl-2H-tetrazol-2-yl)methyl)phenyl)-1-(4-((4-chlorophenyl)(hydroxy)methyl)piperidin-1-yl)prop-2-en-1-one], the IC50 was 4.2 nM. In the case of `Cc1nnn(Cc2cc(Cl)ccc2/C=C/C(=O)N2CCC(C(O)c3ccc(Cl)cc3)CC2)n1` (single isomer, unassigned) [Example 66b, ((R or S), E)-3-(4-Chloro-2-((5-methyl-2H-tetrazol-2-yl)methyl)phenyl)-1-(4-((4-chlorophenyl)(hydroxy)methyl)piperidin-1-yl)prop-2-en-1-one], the IC50 is reported as 4.6 nM. `Cc1nnn(Cc2cc(C(F)(F)F)ccc2/C=C/C(=O)N2CCCC[C@H]2c2nnc(C)o2)n1` [Example 1, (S,E)-1-(2-(5-Methyl-1,3,4-oxadiazol-2-yl)piperidin-1-yl)-3-(2-((5-methyl-2H-tetrazol-2-yl)methyl)-4-(trifluoromethyl)phenyl)prop-2-en-1-one] was tested, and the IC50 was 8.8 nM.
